Measurements from patent US5652226A (priority 1995, dated 1997).
Converted amounts (≈) assume the structure as drawn.

Assays:
Type in all cases: cell-based
Trichiomonas vaginalis = experiment: microbe, parasite or virus in culture; conditions: read-out: MICs
Borrelia burgdorferi = experiment: microbe, parasite or virus in culture; conditions: Borreliella burgdorferi, read-out: MICs
gram negative bacteria = experiment: microbe, parasite or virus in culture; conditions: read-out: GMM
Enterococcus faecalis = experiment: microbe, parasite or virus in culture
Mycoplasma = experiment: microbe, parasite or virus in culture; conditions: read-out: MICs
[1] = test system: various strains of streptococci and enterococci resistant to vancomycin; experiment: microbe, parasite or virus in culture; conditions: read-out: MICs
[2] = test system: Legionella pneumophila and L. Longbeachea; experiment: microbe, parasite or virus in culture; conditions: read-out: MICs
[3] = test system: gram positive and gram negative bacteria
[4] = test system: methicillin-susceptible staphylococci; experiment: microbe, parasite or virus in culture
[5] = test system: methicillin-resistant staphylococci; experiment: microbe, parasite or virus in culture

SMILES: COC[C@H]1O[C@@H](O[C@@H]2OC[C@@H]3O[C@@]4(OC[C@@H](OC(=O)c5c(C)cc(O)cc5O)[C@@H]5OCO[C@H]54)O[C@H]3[C@H]2O)[C@@H](OC)[C@@H](O)[C@@H]1O[C@@H]1O[C@H](C)[C@H](OC)[C@H](O[C@@H]2O[C@H](C)[C@H]3O[C@]4(C[C@@H](O)[C@H](O[C@H]5C[C@@H](O[C@H]6C[C@](C)([N+](=O)[O-])[C@@H](OC)[C@H](C)O6)[C@H](OC(=O)c6c(C)c(Cl)c(O)c(Cl)c6OC)[C@@H](C)O5)[C@@H](C)O4)O[C@]3(C)[C@@H]2O)[C@H]1O [Everninomicin, everninomicin]
- MIC (Trichiomonas vaginalis): ≥ 192 µg/mL
- MIC (Borrelia burgdorferi): ≤ 0.49 µg/mL
- MIC (gram negative bacteria): ≥ 760 µg/mL
- potency relative to vancomycin (Enterococcus faecalis): 2 fold
- MIC (Enterococcus faecalis; Enterococcus faecalis, read-out: GMM): 0.49 µg/mL (≈ 0.3 µM)
- MIC (Mycoplasma): ≥ 200 µg/mL
- MIC [1]: ≤ 0.5 µg/mL
- MIC [2]: ≥ 2.5 µg/mL
- cross resistance with other antibiotics [3]: No cross resistance with other antibiotics was observed
- potency relative to vancomycin [4]: 10 fold
- MIC ([4]; read-out: GMM): 0.5 µg/mL (≈ 0.306 µM)
- potency relative to vancomycin ([5]; more potent than vancomycin, methicillin-resistant staphylococci): 10 fold
- MIC ([5]; read-out: GMM): 0.1 µg/mL (≈ 0.0613 µM)

SMILES: CN[C@H](CC(C)C)C(=O)N[C@H]1C(=O)N[C@@H](CC(N)=O)C(=O)N[C@H]2C(=O)N[C@H]3C(=O)N[C@H](C(=O)N[C@H](C(=O)O)c4cc(O)cc(O)c4-c4cc3ccc4O)[C@H](O)c3ccc(c(Cl)c3)Oc3cc2cc(c3O[C@@H]2O[C@H](CO)[C@@H](O)[C@H](O)[C@H]2O[C@H]2C[C@](C)(N)[C@H](O)[C@H](C)O2)Oc2ccc(cc2Cl)[C@H]1O [vancomycin]
- MIC [1]: ≥ 128 µg/mL
